Measured values as given in patent publication US20230085307A1, “PYRIDAZINONE COMPOUND AND HERBICIDE” (NISSAN CHEMICAL CORPORATION, priority 2019, published 2023).

Experiments:
barnyard grass [1] = experiment: Test Example 3: herbicidal effect by foliage application, Wagner pot (Table 18, symbol H); type: in vivo, barnyard grass (Echinochloa crus-galli); settings: 320 g/ha
Method in brief: (§1)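 Plants were sown in alluvial soil held under 0.1–0.5 cm standing water and grown 14 days in a greenhouse at 25–30 °C. An emulsifiable formulation, water-diluted to the set dose, was then sprayed onto the foliage, and effects were scored three weeks later using previously defined criteria.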

Chinese sprangletop = experiment: Test Example 3: herbicidal effect by foliage application, Wagner pot (Table 18, symbol D); type: in vivo, chinese sprangletop (Leptochloa chinensis); settings: 320 g/ha
Method in brief: as §1

rice flat sedge = experiment: Test Example 3: herbicidal effect by foliage application, Wagner pot (Table 18, symbol E); type: in vivo, rice flat sedge (Cyperus iria); settings: 320 g/ha
Method in brief: as §1

directly sowed rice = experiment: Test Example 3: effect on crop by foliage application, Wagner pot (Table 18, symbol b); type: in vivo; settings: 320 g/ha
Method in brief: as §1

southern crabgrass [2] = experiment: Test Example 4: herbicidal effect by soil treatment (Table 19, symbol F); type: in vivo, southern crabgrass (Digitaria ciliaris); settings: amount of applied herbicide 320 g/ha
Method in brief: (§2)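 Herbicidal effect was rated 3 weeks after treatment, using the scoring criteria of an earlier test. The compound, formulated as an emulsion and diluted in water to a set herbicide amount, had been sprayed uniformly on soil over freshly sown seeds. Growth took place in a greenhouse at 25° C. to 30° C.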

green foxtail [3] = experiment: Test Example 4: herbicidal effect by soil treatment (Table 19, symbol G); type: in vivo, green foxtail (Setaria viridis); settings: amount of applied herbicide 320 g/ha
Method in brief: as §2

barnyard grass [4] = experiment: Test Example 4: herbicidal effect by soil treatment (Table 19, symbol H); type: in vivo, barnyard grass (Echinochloa crus-galli); settings: amount of applied herbicide 320 g/ha
Method in brief: as §2

wild oat [5] = experiment: Test Example 4: herbicidal effect by soil treatment (Table 19, symbol I); type: in vivo, wild oat (Avena fatua); settings: amount of applied herbicide 320 g/ha
Method in brief: as §2

blackgrass [6] = experiment: Test Example 4: herbicidal effect by soil treatment (Table 19, symbol J); type: in vivo, blackgrass (Alopecurus myosuroides); settings: amount of applied herbicide 320 g/ha
Method in brief: as §2

Italian ryegrass [7] = experiment: Test Example 4: herbicidal effect by soil treatment (Table 19, symbol K); type: in vivo, Italian ryegrass (Lolium multiflorum); settings: amount of applied herbicide 320 g/ha
Method in brief: as §2

windgrass [8] = experiment: Test Example 4: herbicidal effect by soil treatment (Table 19, symbol L); type: in vivo, windgrass (Apera spica-venti); settings: amount of applied herbicide 320 g/ha
Method in brief: as §2

velvetleaf [9] = experiment: Test Example 4: herbicidal effect by soil treatment (Table 19, symbol M); type: in vivo, velvetleaf (Abutilon theophrasti); settings: amount of applied herbicide 320 g/ha
Method in brief: as §2

redroot pigweed [10] = experiment: Test Example 4: herbicidal effect by soil treatment (Table 19, symbol N); type: in vivo, redroot pigweed (Amaranthus retroflexus); settings: amount of applied herbicide 320 g/ha
Method in brief: as §2

lambsquarters [11] = experiment: Test Example 4: herbicidal effect by soil treatment (Table 19, symbol O); type: in vivo, lambsquarters (Chenopodium album); settings: amount of applied herbicide 320 g/ha
Method in brief: as §2

chickweed [12] = experiment: Test Example 4: herbicidal effect by soil treatment (Table 19, symbol P); type: in vivo, common chickweed (Stellaria media); settings: amount of applied herbicide 320 g/ha
Method in brief: as §2

persian speedwell [13] = experiment: Test Example 4: herbicidal effect by soil treatment (Table 19, symbol R); type: in vivo, Persian speedwell (Veronica persica); settings: amount of applied herbicide 320 g/ha
Method in brief: as §2

corn [14] = experiment: Test Example 4: effect on crop by soil treatment (Table 19, symbol c); type: in vivo; settings: amount of applied herbicide 320 g/ha
Method in brief: as §2

soybean [15] = experiment: Test Example 4: effect on crop by soil treatment (Table 19, symbol d); type: in vivo; settings: amount of applied herbicide 320 g/ha
Method in brief: as §2

wheat [16] = experiment: Test Example 4: effect on crop by soil treatment (Table 19, symbol e); type: in vivo; settings: amount of applied herbicide 320 g/ha
Method in brief: as §2

beet [17] = experiment: Test Example 4: effect on crop by soil treatment (Table 19, symbol f); type: in vivo; settings: amount of applied herbicide 320 g/ha
Method in brief: as §2

rapeseed [18] = experiment: Test Example 4: effect on crop by soil treatment (Table 19, symbol g); type: in vivo; settings: amount of applied herbicide 320 g/ha
Method in brief: as §2

southern crabgrass [19] = experiment: Test Example 5: herbicidal effect by foliage application, plastic box (Table 20, symbol F); type: in vivo, southern crabgrass (Digitaria ciliaris); settings: foliage application, 320 g/ha, three weeks after application
Method in brief: (§3)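 Foliar spray test: emulsion formulation diluted in water to a set application rate, sprayed onto 14-day-old plants raised in diluvial soil at 25° C to 30° C under glass. Both herbicidal effect and crop effect rated visually three weeks later.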

green foxtail [20] = experiment: Test Example 5: herbicidal effect by foliage application, plastic box (Table 20, symbol G); type: in vivo, green foxtail (Setaria viridis); settings: foliage application, 320 g/ha, three weeks after application
Method in brief: as §3

barnyard grass [21] = experiment: Test Example 5: herbicidal effect by foliage application, plastic box (Table 20, symbol H); type: in vivo, barnyard grass (Echinochloa crus-galli); settings: foliage application, 320 g/ha, three weeks after application
Method in brief: as §3

wild oat [22] = experiment: Test Example 5: herbicidal effect by foliage application, plastic box (Table 20, symbol I); type: in vivo, wild oat (Avena fatua); settings: foliage application, 320 g/ha, three weeks after application
Method in brief: as §3

blackgrass [23] = experiment: Test Example 5: herbicidal effect by foliage application, plastic box (Table 20, symbol J); type: in vivo, blackgrass (Alopecurus myosuroides); settings: foliage application, 320 g/ha, three weeks after application
Method in brief: as §3

Italian ryegrass [24] = experiment: Test Example 5: herbicidal effect by foliage application, plastic box (Table 20, symbol K); type: in vivo, Italian ryegrass (Lolium multiflorum); settings: foliage application, 320 g/ha, three weeks after application
Method in brief: as §3

windgrass [25] = experiment: Test Example 5: herbicidal effect by foliage application, plastic box (Table 20, symbol L); type: in vivo, windgrass (Apera spica-venti); settings: foliage application, 320 g/ha, three weeks after application
Method in brief: as §3

velvetleaf [26] = experiment: Test Example 5: herbicidal effect by foliage application, plastic box (Table 20, symbol M); type: in vivo, velvetleaf (Abutilon theophrasti); settings: foliage application, 320 g/ha, three weeks after application
Method in brief: as §3

redroot pigweed [27] = experiment: Test Example 5: herbicidal effect by foliage application, plastic box (Table 20, symbol N); type: in vivo, redroot pigweed (Amaranthus retroflexus); settings: foliage application, 320 g/ha, three weeks after application
Method in brief: as §3

lambsquarters [28] = experiment: Test Example 5: herbicidal effect by foliage application, plastic box (Table 20, symbol O); type: in vivo, lambsquarters (Chenopodium album); settings: foliage application, 320 g/ha, three weeks after application
Method in brief: as §3

chickweed [29] = experiment: Test Example 5: herbicidal effect by foliage application, plastic box (Table 20, symbol P); type: in vivo, common chickweed (Stellaria media); settings: foliage application, 320 g/ha, three weeks after application
Method in brief: as §3

persian speedwell [30] = experiment: Test Example 5: herbicidal effect by foliage application, plastic box (Table 20, symbol R); type: in vivo, Persian speedwell (Veronica persica); settings: foliage application, 320 g/ha, three weeks after application
Method in brief: as §3

corn [31] = experiment: Test Example 5: effect on crop by foliage application, plastic box (Table 20, symbol c); type: in vivo; settings: 320 g/ha, three weeks after application
Method in brief: as §3

soybean [32] = experiment: Test Example 5: effect on crop by foliage application, plastic box (Table 20, symbol d); type: in vivo; settings: 320 g/ha, three weeks after application
Method in brief: as §3

wheat [33] = experiment: Test Example 5: effect on crop by foliage application, plastic box (Table 20, symbol e); type: in vivo; settings: 320 g/ha, three weeks after application
Method in brief: as §3

beet [34] = experiment: Test Example 5: effect on crop by foliage application, plastic box (Table 20, symbol f); type: in vivo; settings: 320 g/ha, three weeks after application
Method in brief: as §3

rapeseed [35] = experiment: Test Example 5: effect on crop by foliage application, plastic box (Table 20, symbol g); type: in vivo; settings: 320 g/ha, three weeks after application
Method in brief: as §3

melting point: 286 to 288 °C
SMILES: COc1ccc2c(-c3c(O)c(N)nn(C)c3=O)c(-c3ccccc3OC)sc2c1 [Compound No. 3-087, 6-amino-5-hydroxy-4-(6-methoxy-2-(2-methoxyphenyl)benzo[b]thiophen-3-yl)-2-methyl pyridazin-3(2H)-one]
herbicidal effect on barnyard grass (H) (barnyard grass [1]): 4 (Herbicidal rate of 70% or more and less than 90%)
herbicidal effect on Chinese sprangletop (D) (Chinese sprangletop): 0 (Herbicidal rate of 5% or less (almost no effect))
herbicidal effect on rice flat sedge (E) (rice flat sedge): 3 (Herbicidal rate of 40% or more and less than 70%)
effect on directly sowed rice (b) (directly sowed rice): 1 (Herbicidal rate of 5% or more and less than 20%)
F: southern crabgrass, herbicidal effect grade (southern crabgrass [2]): 0 (Herbicidal rate of 5% or less (almost no effect))
G: green foxtail, herbicidal effect grade (green foxtail [3]): 0 (Herbicidal rate of 5% or less (almost no effect))
H: barnyard grass, herbicidal effect grade (barnyard grass [4]): 0 (Herbicidal rate of 5% or less (almost no effect))
I: wild oat, herbicidal effect grade (wild oat [5]): 0 (Herbicidal rate of 5% or less (almost no effect))
J: blackgrass, herbicidal effect grade (blackgrass [6]): 0 (Herbicidal rate of 5% or less (almost no effect))
K: Italian ryegrass, herbicidal effect grade (Italian ryegrass [7]): 0 (Herbicidal rate of 5% or less (almost no effect))
L: windgrass, herbicidal effect grade (windgrass [8]): 0 (Herbicidal rate of 5% or less (almost no effect))
M: velvetleaf, herbicidal effect grade (velvetleaf [9]): 0 (Herbicidal rate of 5% or less (almost no effect))
N: redroot pigweed, herbicidal effect grade (redroot pigweed [10]): 0 (Herbicidal rate of 5% or less (almost no effect))
O: lambsquarters, herbicidal effect grade (lambsquarters [11]): 0 (Herbicidal rate of 5% or less (almost no effect))
P: chickweed, herbicidal effect grade (chickweed [12]): 3 (Herbicidal rate of 40% or more and less than 70%)
R: persian speedwell, herbicidal effect grade (persian speedwell [13]): 3 (Herbicidal rate of 40% or more and less than 70%)
c: corn, effect on crop grade (corn [14]): 0 (Herbicidal rate of 5% or less (almost no effect))
d: soybean, effect on crop grade (soybean [15]): 0 (Herbicidal rate of 5% or less (almost no effect))
e: wheat, effect on crop grade (wheat [16]): 0 (Herbicidal rate of 5% or less (almost no effect))
f: beet, effect on crop grade (beet [17]): 0 (Herbicidal rate of 5% or less (almost no effect))
g: rapeseed, effect on crop grade (rapeseed [18]): 0 (Herbicidal rate of 5% or less (almost no effect))
F: southern crabgrass, herbicidal effect grade (southern crabgrass [19]): 0 (Herbicidal rate of 5% or less (almost no effect))
G: green foxtail, herbicidal effect grade (green foxtail [20]): 0 (Herbicidal rate of 5% or less (almost no effect))
H: barnyard grass, herbicidal effect grade (barnyard grass [21]): 3 (Herbicidal rate of 40% or more and less than 70%)
I: wild oat, herbicidal effect grade (wild oat [22]): 0 (Herbicidal rate of 5% or less (almost no effect))
J: blackgrass, herbicidal effect grade (blackgrass [23]): 4 (Herbicidal rate of 70% or more and less than 90%)
K: Italian ryegrass, herbicidal effect grade (Italian ryegrass [24]): 1 (Herbicidal rate of 5% or more and less than 20%)
L: windgrass, herbicidal effect grade (windgrass [25]): 5 (Herbicidal rate of 90% or more (almost completely withered))
M: velvetleaf, herbicidal effect grade (velvetleaf [26]): 0 (Herbicidal rate of 5% or less (almost no effect))
N: redroot pigweed, herbicidal effect grade (redroot pigweed [27]): 1 (Herbicidal rate of 5% or more and less than 20%)
O: lambsquarters, herbicidal effect grade (lambsquarters [28]): 0 (Herbicidal rate of 5% or less (almost no effect))
P: chickweed, herbicidal effect grade (chickweed [29]): 5 (Herbicidal rate of 90% or more (almost completely withered))
R: persian speedwell, herbicidal effect grade (persian speedwell [30]): 4 (Herbicidal rate of 70% or more and less than 90%)
c: corn, effect on crop grade (corn [31]): 0 (Herbicidal rate of 5% or less (almost no effect))
d: soybean, effect on crop grade (soybean [32]): 0 (Herbicidal rate of 5% or less (almost no effect))
e: wheat, effect on crop grade (wheat [33]): 0 (Herbicidal rate of 5% or less (almost no effect))
f: beet, effect on crop grade (beet [34]): 4 (Herbicidal rate of 70% or more and less than 90%)
g: rapeseed, effect on crop grade (rapeseed [35]): 4 (Herbicidal rate of 70% or more and less than 90%)
